Data as given in EP0299528A1, “Doxorubicin hydrochloride nonaqueous solution” (Bristol-Myers Squibb Company, priority 1987, dated 1989).
Structures can show the parent of a compound that is named as a salt. Where two headings read alike, the source gives them in different places. Blank lines part the entries; values can stand above or below the molecule they belong to.

Columns and labels:
[1] = Protocol: The pH is measured on solutions diluted to 1 mg/ml with water or 70% water/30% acetonitrile (v/v). […] An amount of citric acid is used which will provide a solution pH in the range of about 3-5, preferably 3-4.5.
We have tested a number of antioxidants including α-tocopherol, tert-butylhydroquinone (TBHQ), sodium formaldehyde bisulfite, butylated hydroxy anisole (BHA), butylated hydroxy toluene (BHT), sodium bisulfite and propyl gallate. […] Generally an amount of α-tocopherol, tert-butylhydroquinone or sodium formaldehyde bisulfite is employed in the range of about 0.1-2 mg/ml. The preferred concentration of antioxidant is about 0.5-2 mg/ml with about 2 mg/ml being most preferred.
Glass vials may conveniently be used as the container.

[2] = cited from earlier work; for reconstituted solution remains stable: in 0.9% NaCl solution, Ketchum, et al. 1981
[3] = cited from earlier work
[4] = Solubility of doxorubicin HCl in nonaqueous solvents; type: physicochemical; details: organic solvent or mixture

Structure (SMILES): O=S(=O)(O)CO [sodium formaldehyde bisulfite]
stability of the solutions with the antioxidant [1]: resulted in the desired stability

Structure (SMILES): O=C(O)CC(O)(CC(=O)O)C(=O)O [citric acid]
stability of the solutions with the acid used for pH control ([1]; acid used to reach a pH range of about 3-5): optimum stability

Structure (SMILES): COc1cccc2c1C(=O)c1c(O)c3c(c(O)c1C2=O)C[C@@](O)(C(=O)CO)C[C@@H]3O[C@H]1C[C@H](N)[C@H](O)[C@H](C)O1 [doxorubicin HCl, doxorubicin hydrochloride]
reconstituted solution remains stable ([2]; 5°C): seven
reconstituted solution remains stable ([2]; room temperature): seven
reconstituted solutions stable (≦10% potency loss) ([2]; refrigerated at 4°C, Hoffman, et al. 1979): up to six
pH of maximum stability ([3]; Tris or phosphate buffers using HCl to adjust pH, Janssen, et al. 1985): 4
pH of optimum stability ([3]; reconstitution solvent 5% Dextrose Injection, USP, Poochikian, et al. 1981): ~4.5
chemical stability of solutions ([1]; glycerol formal, 2-pyrrolidinone and 1-methyl-2-pyrrolidinone): chemically unstable
potency loss ([1]; short-term (0.5-1 hour) warming (60-80°C) in propylene glycol, 1,2-dihydroxybutane or 1,3-dihydroxypropane): no potency loss
physical stability of the solution on storage ([1]; stored at 4°C to -20°C, seeding with crystalline doxorubicin HCl does not affect crystallization): remains in solution
solubility ([4]; glycerol formal, pyrrolidinones, glycerol formal, 2-pyrrolidinone and 1-methyl-2-pyrrolidinone, read-out: concentration of solutions produced): ≥ 5000 µg/mL
solubility ([4]; glycols with 5-10% water, propylene glycol, 1,2-dihydroxybutane, 1,3-dihydroxypropane with addition of 5-10% (v/v) water, read-out: solubility): ~20000 µg/mL
solubility ([4]; nonaqueous solvents, same three solvents after short-term (0.5-1 hour) warming (60-80°C) with vigorous stirring, read-out: solubility): ~10000 µg/mL
solubility ([4]; nonaqueous solvents, with heating, polyethylene glycols, ethanol, benzyl alcohol, dimethylisosorbide, ethyl lactate, Solketol, Cremophors, Pluronics, read-out: solubility): < 5000 µg/mL
solubility ([4]; propylene glycol, 1,2-dihydroxybutane, 1,3-dihydroxypropane, room temperature, in propylene glycol, 1,2-dihydroxybutane and 1,3-dihydroxypropane, read-out: solubility): < 5000 µg/mL

Results, then the molecule that gave them:

stability of the solutions with the antioxidant [1]: resulted in the desired stability
Structure (SMILES): Cc1c(C)c2c(c(C)c1O)CCC(C)(CCCC(C)CCCC(C)CCCC(C)C)O2 (stereo not drawn) [α-tocopherol]

effect of additive on stability of the solutions [1]: did not improve stability
Structure (SMILES): CCCCCCCC/C=C\CCCCCCCC(=O)OCCOCC(OCCO)C1OCC(OCCO)C1OCCO (stereo not drawn) [Tween-80]

stability of the solutions with the antioxidant ([1]; elevated temperatures as well as room temperature (25°C) or below): resulted in the desired stability
Structure (SMILES): CC(C)(C)c1cc(O)ccc1O [tert-butylhydroquinone]
